In US7585637B2, “Estrogen related receptor, ERRα, a regulator of bone formation” (priority 1999, dated 2009):

Tests used:
[1] = system: ERRα; assay: Immunocytochemistry for ERRα on bone nodules after oligonucleotide treatment; assay type: cell-based, rat; conditions: 24 h of treatment; 1 μM
Procedure: Immunolabelling of cultures was done essentially as described previously (Turksen, 1991; Turksen, 1992). Cultures were rinsed with PBS, fixed with 3.7% formaldehyde in PBS and permeabilized with methanol at −20° C. Frozen sections were fixed 10 min in cold acetone. Paraffine sections were treated deparaffined in xylene, then rehydrated in 100%, 95% and 70% ethanol and water. After rinsing, cells in dishes or frozen, paraffine sections were incubated for 1 h at room temperature with 10% normal serum in PBS for ERRα and ERα and in 3% BSA in PBS (denaturated) for ERβ OCN, ALP, OPN, and BSP. After rinsing, cells or sections were incubated for 1.5 hours with appropriate dilutions of primary antibodies (1/50, anti-ERRα; anti-ERα or anti-ERβ (MC-20 or Y-19, respectively; Santa Cruz Biotechnology, Inc))(Shim et al, 1999; Saji et al, 2000; Tremblay et al 1999). The anti-rat OCN antiserum was kindly provided by Dominique Modrowski (INSERM U349, Hopital Lariboisiere, Paris, France) and used at 1/100 dilution. The anti-OPN MPIIIB10) and anti-BSP (WWVIDI) antibodies were purchased from the Hybridoma Bank (Iowa City, Iowa) and used at a 1/800 and 1/500 dilution respectively. […]

[2] = system: primary rat calvaria (RC) cells; assay: Mineralized bone nodule formation (von Kossa) in RC cell cultures treated with antisense/sense oligonucleotides; assay type: cell-based; conditions: for decrease in mineralized bone nodule formation: treated day 5 to day 11; for decrease in mineralized bone nodule number: treated days 1-6 then normal differentiation medium, day 15
Procedure: (§1) Cells were enzymatically isolated from the calvaria of 21 d Wistar rat fetuses by sequential digestion with collagenase as described previously (Bellows, 1986). Cells obtained from the last four of the five digestion steps (populations II-V) were pooled and plated in T-75 flasks in α-MEM containing 15% heat-inactivated FBS (Flow Laboratories, McLean, Va.) and antibiotics comprising […] penicillin G (Sigma Chemical Co., St. Louis, Mo.), […] gentamycin (Sigma), and […] fungizone (Flow Laboratories). After 24 h incubation, attached cells were washed with PBS to remove nonviable cells and other debris, and then collected by trypsinization using 0.01% trypsin in citrate saline. Aliquots were counted with a Coulter Counter (Coulter Electronics, Hialeah Fla.), and the remaining cells were resuspended in the standard medium described above. The resuspended cells were plated into 100 mm tissue culture dishes at 10^5 cells/dish, into 35 mm tissue culture dishes at 2×10^4/dish and in 24 wells plates at 10^4 cells/well. […] Medium was changed every 2 days. All dishes were incubated at 37° C. in a humidified atmosphere in a 95% air/5% CO2 incubator.
For quantification of nodule formation, dishes or wells were fixed and stained by the Von Kossa technique and bone nodules were counted on a grid (Bellows et al., 1986; Bellows and Aubin, 1989). Results are plotted as the mean number of nodules±SD of three wells for controls and each concentration of antisense or sense primers and five dishes for pcDNA3 control and pcDNA3-ERRα.
(§2) The resuspended RC cells were plated in 24 wells plates at 10^4 cells/well. Antisense oligonucleotide inhibition of ERRα expression was accomplished with a 20-base phosphorotbioate-modified oligonucleotide, localized to the A/B domain. The ERRα antisense oligonucleatide sequence was: 5′[…]-3′(SEQ ID NO:30). Control dishes were treated with the complementary sense oligonucleotide or no oligonucleotide. Preliminary experiments were done to determine effective oligonucleotide concentrations that were not toxic. […] Medium was changed every 2 days and fresh oligonucleotides were added. mRNA was collected at day 6 for the proliferation experiments and at day 15 for the differentiation experiments. Nodules were counted at 15 days.

[3] = system: primary rat calvaria (RC) cells; assay: Cell number (cell counting) in RC cell cultures treated with ERRα antisense/sense oligonucleotides; assay type: cell-based
Procedure: as §1
For cell growth analysis, the cell layers were rinsed in PBS, released with trypsin and collagenase (1:1, vol/vol, of solutions described above), and the harvested cells were counted electronically. Results are plotted as the average of three counts for each of three dishes for control and pcDNA3-ERRα or three wells for each concentration of antisense or sense primers used.
as §2

[4] = system: ALP, BSP, OPN, OCN, cbfa1, COLLI, Cyclin D1, c-Fos, Bcl2, Bax; assay: RT-PCR of osteoblast, proliferation and apoptosis markers in antisense-treated RC cells; assay type: cell-based, rat
Procedure: Samples of total cellular RNA (1.5-5 μg) were reverse-transcribed using oligo dT and the first strand synthesis kit of Superscript™ II, Gibco BRL. PCR was performed with specific primers specific for ERRα. Primers, located in different exons, were as follows: […]
Osteoblast-associated and other markers were also amplified by PCR using specific primers for rat OCN, OPN, ALP, BSP, Cbfa1, COLL I (collagen type I α chain), C-fos, Cyclin D1, Bax and Bcl-2. PCR was done for 25 cycles (94° C. for 1 min, 55° C. for 1 min, 72° C. for 1 min and a final elongation step of 7 min at 72° C.) for OCN, OPN, ALP, BSP, L32, Bax and 30 cycles for Bcl-2, 32 cycles for c-Fos, 35 cycles for Cyclin D1 and Cbfa1 (with annealing temperatures of 58° C. and 62° C. respectively and 23 cycles for COLLI with annealing temperature of 59° C.
as §2

[5] = system: ERRα mRNA; assay: ERRα mRNA expression (Northern blot) in RC cells treated with hormones or growth factors; assay type: cell-based, rat; conditions: for effect of acute exposure on ERRα mRNA levels: 24 hours beginning at day 9 or day 15 (E2, D3) or day 7 and day 15 (TGFβ); for stimulation of ERRα mRNA expression at times later than day 6 / stimulation (increase) of ERRα mRNA expression: RC cells treated continuously; for stimulation (increase) of ERRα mRNA expression: E2 10^−8M, D3 10^−9M, TGFβ 10^−10 M
Procedure: as §1
Total RNA was extracted with guanidine from RC cells at different times of the culture corresponding to different stages of proliferation, differentiation and bone nodule formation (Current Protocols in Molecular Biology, vol. 1, 1996). Northern blots were prepared and hybridized with a 750bp fragment corresponding to the rat 3′ UTR of ERRα according to standard procedures (Chirgwin et al, 1979). Rat α1 COLL-I (Genovese et al.) was a 900bp cDNA PstI fragment containing the entire 3′ noncoding region and one-half of the C-terminal of the propeptide of the α1 chain of type I. Rat bone/liver/kidney ALP (Noda et al., 1987) was a 600 bp cDNA EcoRI fragment obtained by digesting pRAP54 with BssHII-XhoI to remove 1.8 kb of the 5′ region and religating the blunt ends. Rat OPN was a 700 bp cDNA BamHI-EcoRI fragment obtained by digesting the full length cDNA with PvuI to remove 800 bp of 5′ region and ligating the blunt ended fragment into SmaI cut pGEM-7Zf(+) vector (Promega, Madison, Wis.). Rat OCN was a partial cDNA containing 350 bp of the 3′ UTR isolated with OCN-specific primers from a λgt11 library prepared from ROS 17/2.8 cells, rat BSP was a partial cDNA containing 500bp of 3′ region isolated with BSP-specific primers from a λgt11 library prepared from RC cells forming bone nodules, and rat L32 was generated from RC cell mRNA by PCR using specifics primers; the identities of the OCN, BSP and L32 probes were confirmed by sequencing (Liu et al., 1994).

[6] = treated days 1-6, day 15, vs control or sense-treated

## 5′TCACCGGGGGTTCAGTCTCA-3′(SEQ ID NO:30) (all phosphorothioate, sugars by position and methylation of C not given here) [antisense oligonucleotide]
[1]
  ERRα detection in bone nodules: almost undetectable
[2]; 0.5 μM
  decrease in mineralized bone nodule formation: 30%
[2]; 1 μM
  decrease in mineralized bone nodule formation: 60%
  decrease in mineralized bone nodule number: 29%
[2]; 2 μM
  decrease in mineralized bone nodule formation: 100%
  decrease in mineralized bone nodule number: 45%
[2]; treated days 9-15, 1 μM
  decrease in the number of mineralized bone nodules formed: 17%
[2]; treated days 9-15, 2 μM
  decrease in the number of mineralized bone nodules formed: 27%
[2]; treated days 9-15, compared to control cultures
  surface area covered by bone nodules that did form: greater surface area
[3]; RC cells treated days 1-6, counted at day 6, 1 μM, vs sense or untreated controls
  decrease in cell number: 30%
[3]; RC cells treated days 1-6, counted at day 6, 2 μM, vs sense or untreated controls
  decrease in cell number: 40%
[3]; treated day 5 to day 11, by day 15, 1 μM
  decrease in cell number: 19%
[3]; treated day 5 to day 11, by day 15, 2 μM
  decrease in cell number: 35%
[4]; treated day 5 to day 11
  ALP expression: not affected
  BSP expression: decreased
  COLLI expression: not affected
  OCN expression: decreased
  OPN expression: not affected
  cbfa1 expression: decreased
[4]; treated days 1-6, day 6
  ALP expression: not significantly affected
  BSP expression: reduced significantly
  Bax expression: not significantly affected
  Bcl2 expression: not significantly affected
  COLLI expression: not significantly affected
  Cyclin D1 expression: reduced but it did not reach statistical significance
  OPN expression: not significantly affected
  c-Fos expression: not significantly affected
  cbfa1 expression: reduced significantly
[4]; treated days 1-6, day 15
  COLLI expression: not significantly altered
  OCN expression: not significantly altered
  OPN expression: not significantly altered
[4]; [6]
  ALP expression: remained lower
  BSP expression: remained lower
[4]; treated days 9-15
  ALP expression: not BSP, COLLI or ALP were decreased
  BSP expression: not BSP, COLLI or ALP were decreased
  COLLI expression: not BSP, COLLI or ALP were decreased
  OCN expression: decreased
  OPN expression: decreased

## C=C1/C(=C\C=C2/CCC[C@]3(C)[C@@H]([C@H](C)CCCC(C)(C)O)CC[C@@H]23)C[C@@H](O)C[C@@H]1O [D3, 1,25(OH)2 vitamin D3]
[5]
  effect of acute exposure on ERRα mRNA levels: no effect
  stimulation of ERRα mRNA expression at times later than day 6: not later
[5]; day 6
  stimulation (increase) of ERRα mRNA expression: 47%

## C[C@@H]1C[C@H]2[C@@H]3CCC4=CC(=O)C=C[C@]4(C)[C@@]3(F)[C@@H](O)C[C@]2(C)[C@@]1(O)C(=O)CO [Dex, dexamethasone]
[5]; 24 hour acute treatment of RC cells at day 9 or day 15
  effect of acute treatment on ERRα expression level: no effect

## CCCCC[C@H](O)/C=C/[C@H]1[C@H](O)CC(=O)[C@@H]1C/C=C\CCCC(=O)O [PGE2]
[5]; RC cells, PGE2 10^−9 M, Dex
  effect on ERRα expression: Neither PGE2 nor Dex had any significant effect

## PTH-1-34: 1-34 PTH (Sigma)
[5]; acute exposure at day 7
  decrease of ERRα after acute exposure: 25%
[5]; acute exposure at day 16
  decrease of ERRα after acute exposure: 33%
[5]; continuous 10^−11 M, day 6
  inhibition of ERRα: 15%
[5]; continuous 10^−11 M, day 12
  increase of ERRα: 20%
[5]; continuous 10^−11 M, day 15
  inhibition of ERRα: 26%

## TGFβ
[5]
  effect of acute exposure on ERRα mRNA levels: no effect
  stimulation of ERRα mRNA expression at times later than day 6: not later
[5]; day 6
  stimulation (increase) of ERRα mRNA expression: 400%
